Data taken from patent US8735593B2, “Aminopyridines useful as inhibitors of protein kinases” (Vertex Pharmaceuticals Incorporated, priority 2007, dated 2014).
Where two headings read alike, the source gives them in different places.

Assays:
GSK3β TYR 216 = GSK3β TYR 216 (Homo sapiens (Human), UniProt P49841); test: GSK3β p-TYR inhibition assay, western blotting of Jurkat cells; assay type: cell-based; conditions: compound incubated o/n, read-out: GSK3b pTYR 216: IC50
Procedure: (§1) Compounds are screened for their ability to inhibit the phosphorylation of tyrosine (TYR) residues through the use of western blotting of Jurkat cells dosed with the compounds. The phosphorylation of the specific TYR residues tested are GSK3α TYR 279 and GSK3β TYR 216.
(§2) Jurkat cells are seeded at a density of 2×10^5 cells/well in a 12 well dish in starvation media (RPMI+1% FBS+P/S). Following starvation for 16 hours, the compound is dosed into each well at a final DMSO concentration of 0.3% and cells are incubated o/n at 37° C. 5% CO2. The next day, cells are spun down at 1500 rpm, washed with PBS, and lysed in 100 uL Laemli sample buffer with β-mercaptoethanol.
(§3) 15 microliters (uL) of cell lysates are loaded onto a 10% tris-glycine gel and run at 120 v for 2 hours or until dye front runs off of the gel. The protein is then transferred onto a PVDF membrane at 100 v for 60 min. PBST (PBS containing 0.1% Tween 20, such as 1 ml Tween per 1 L of PBS) is then made up and used for all washes and antibody incubations. The blot is blocked in 5% nonfat milk PBST for one hour.
(§4) The primary antibody (GSK-3α/β pTYR 279/216 at 1:1000 dilution Upstate cat#05-413) is then added in 5%-nonfat milk PBST overnight at 4° C. with gentle rocking. The blot is then washed in PBST for 5 min. This is then repeated 4 times. A secondary anti-mouse-HRP conjugated antibody (1:5000 dilution) is added for 60 min in 5% milk PBST. The blot is then washed in PBST for 5 min. This is also repeated 4 times. 3.0 mL of the developing solution (ECL plus Western Blotting Detection System from Amersham/GE cat# RPN2132) is made and then added. The solution is swirled over the blot for ˜30 sec. The blot is then developed using CL-Xposure clear blue X-ray film. GAPDH expression level is used as a loading control, (GAPDH antibody: santa cruz 25-778) at 1:10000 dilution.
(§5) For determination of GSK-3α and GSK-3β pTYR IC50, the density of the respective bands for each protein at specific compound concentration is compared to a no compound DMSO treated control cell sample present on each exposure. IC50 numbers are defined as the concentration of compound in which the density of the GSK-3α or GSK-3β band is 50% of the no compound control.

GSK3α TYR 279 = GSK3α TYR 279 (Homo sapiens (Human), UniProt P49840); test: GSK-3α p-TYR inhibition assay, western blotting of Jurkat cells; assay type: cell-based; conditions: compound incubated o/n, read-out: GSK3a pTYR 279: IC50
Procedure: as §1, §2, §3, §4, §5

[1] = system: β-catenin dependent TCF/LEF transcriptional activity; test: β-Catenin stabilization protocol, β-lactamase reporter assay in Jurkat cells; assay type: cell-based; conditions: Homo sapiens, 460/530 ratio 50% of the maximum effect, read-out: Beta Catenin IC50
From the text: GSK-3 phosphorylation of β-catenin targets it to the proteosome for degradation. Inhibition of GSK-3 results in accumulation of β-catenin in the cytosol of cells which through interaction with the transcription factor TCF/LEF translocates to the nucleus and drives the transcription of Wnt-dependent genes. The assay is designed to determine the level of β-catenin dependent TCF/LEF transcriptional activity in a quantitative manner through the use of a β-lactamase reporter assay in Jurkat cells dosed with a compound.
Jurkat β-catenin cells are starved overnight in assay media (1% FBS, 1× Penstrep, RPMI) in the flask. The next day Jurkat β-catenin cells are seeded in 96 well flat bottom plates at a density of 50,000 cells/well in assay media in a volume of 100 ul. The compound is added to the well at a final DMSO concentration of 0.75% and incubated at 37° C. o/n. The next day, 20 uL of 6×CCF4 dye is added to the wells and incubated at room temperature for 1-2 hours. Plates are read on the Cytofluor 4000 series multiwell plate reader and the 460/530 ratio is determined. The GSK-3 IC50 for induction of β-catenin is determined by plotting the 460/530 ratio against the concentration of compound (Log scale) and using the equation of the slope to calculate the point at which the ratio is 50% of the maximum effect.

GSK-3β (AA 1-420) = GSK-3β (AA 1-420) (Homo sapiens (Human), UniProt P49841); test: GSK-3 Inhibition Assay (standard coupled enzyme system); assay type: biochemical; conditions: 20 μM ATP, 300 μM peptide, 20 nM GSK-3β, 30° C.
Procedure: Compounds of the present invention were screened for their ability to inhibit GSK-3β (AA 1-420) activity using a standard coupled enzyme system (Fox et al., Protein Sci. 1998, 7, 2249). Reactions were carried out in a solution containing 100 mM HEPES (pH 7.5), 10 mM MgCl2, 25 mM NaCl, 300 μM NADH, 1 mM DTT and 1.5% DMSO. Final substrate concentrations in the assay were 20 μM ATP (Sigma Chemicals, St Louis, Mo.) and 300 μM peptide (American Peptide, Sunnyvale, Calif.). Reactions were carried out at 30° C. and 20 nM GSK-3β. Final concentrations of the components of the coupled enzyme system were 2.5 mM phosphoenolpyruvate, 300 μM NADH, 30 μg/ml pyruvate kinase and 10 μg/ml lactate dehydrogenase.
An assay stock buffer solution was prepared containing all of the reagents listed above with the exception of ATP and the test compound of the present invention. The assay stock buffer solution (175 μl) was incubated in a 96 well plate with 5 μl of the test compound of the present invention at final concentrations spanning 0.002 μM to 30 μM at 30° C. for 10 min. Typically, a 12-point titration was conducted by preparing serial dilutions (from 10 mM compound stocks) with DMSO of the test compounds of the present invention in daughter plates. The reaction was initiated by the addition of 20 μl of ATP (final concentration 20 μM). Rates of reaction were obtained using a Molecular Devices Spectramax plate reader (Sunnyvale, Calif.) over 10 min at 30° C. The Ki values were determined from the rate data as a function of inhibitor concentration.

[2] = system: amyloid-β peptide tissue levels; conditions: mice over-expressing APP, treated over a three-week period; cited from earlier work
[3] = system: rat brains after transient middle cerebral artery occlusion (MCAO); conditions: cited from earlier work
[4] = read-out: Ki value, inhibition of GSK-3
[5] = read-out: Ki value, inhibition of GSK-3 (upper bound)

Chain of GSK3α TYR 279 (P49840 whole entry): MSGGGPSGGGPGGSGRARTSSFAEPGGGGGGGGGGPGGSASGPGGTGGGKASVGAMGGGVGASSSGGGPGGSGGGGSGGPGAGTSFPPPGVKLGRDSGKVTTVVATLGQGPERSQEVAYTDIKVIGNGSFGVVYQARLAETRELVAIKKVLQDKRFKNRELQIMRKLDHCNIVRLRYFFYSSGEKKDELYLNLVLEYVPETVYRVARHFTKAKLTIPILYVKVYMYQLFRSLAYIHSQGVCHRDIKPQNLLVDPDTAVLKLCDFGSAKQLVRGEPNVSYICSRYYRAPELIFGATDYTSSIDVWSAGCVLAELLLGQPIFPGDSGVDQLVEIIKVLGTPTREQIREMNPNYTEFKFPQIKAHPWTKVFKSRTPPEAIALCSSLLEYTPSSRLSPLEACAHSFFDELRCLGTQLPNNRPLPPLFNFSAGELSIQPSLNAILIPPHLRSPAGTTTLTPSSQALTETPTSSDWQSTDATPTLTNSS
Chain of GSK3β TYR 216 (P49841 whole entry): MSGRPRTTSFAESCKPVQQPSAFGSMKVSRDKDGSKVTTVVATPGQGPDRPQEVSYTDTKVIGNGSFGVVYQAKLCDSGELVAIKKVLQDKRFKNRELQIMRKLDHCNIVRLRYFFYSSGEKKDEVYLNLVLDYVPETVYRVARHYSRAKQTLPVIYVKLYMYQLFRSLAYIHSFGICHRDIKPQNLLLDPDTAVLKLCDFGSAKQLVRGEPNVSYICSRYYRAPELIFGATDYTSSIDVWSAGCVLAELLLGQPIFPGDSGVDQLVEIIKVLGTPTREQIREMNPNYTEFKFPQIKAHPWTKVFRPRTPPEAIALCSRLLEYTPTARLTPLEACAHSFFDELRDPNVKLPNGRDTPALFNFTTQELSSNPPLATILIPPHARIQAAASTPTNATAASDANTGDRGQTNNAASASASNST
Chain of GSK-3β (AA 1-420) (P49841 whole entry, species assumed, the tested form may be a part): as the sequence (P49841 whole entry) above

Compound | IC50 (GSK3β TYR 216) | IC50 (GSK3α TYR 279) | IC50 [1] | Ki (GSK-3β (AA 1-420); [4]) | Ki (GSK-3β (AA 1-420); [5]) | decrease in amyloid-β peptide tissue levels [2] | infarct size [3]
Cc1cc(Nc2n[nH]c3ncc(F)cc23)nc(-c2ccccc2Cl)c1 [Compound I-3] | 0.03 µM | 0.002 µM | 2.7 µM | ≤ 0.01 µM |  |  | 
Fc1cnc2[nH]nc(Nc3cc(C(F)(F)F)cc(-c4ccccc4Cl)n3)c2c1 [Compound I-1, N-(6-(2-chlorophenyl)-4-(trifluoromethyl)pyridin-2-yl)-5-fluoro-1H-pyrazolo[3,4-b]pyridin-3-amine] | 0.05 µM | 0.003 µM | 2.08 µM | > 0.01 µM | ≤ 1 µM |  | 
Cc1cc(Nc2ncc(C)s2)nc(-c2ccccc2Cl)c1 [Compound I-6] |  |  | 1.3 µM | > 0.01 µM | ≤ 1 µM |  | 
Cc1cc(Nc2n[nH]c3ncc(F)cc23)nc(-c2ccccc2)c1C [Compound I-5] | 0.02 µM | 0.0006 µM | 1.1 µM | ≤ 0.01 µM |  |  | 
Cc1cc(Nc2n[nH]c3ncc(F)cc23)nc(-c2ccccc2Cl)c1C [Compound I-2] | 0.2 µM | 0.01 µM | > 10 µM | ≤ 0.01 µM |  |  | 
[Li] [lithium] |  |  |  |  |  | > 50% | 
IGF-1: insulin growth factor-1, a known GSK-3 inhibitor |  |  |  |  |  |  | reduced infarct size
Cc1cc(-c2ccccc2Cl)nc(Nc2n[nH]c3ncc(F)cc23)c1C [Compound I-4] | 0.3 µM | 0.03 µM |  | > 0.01 µM | ≤ 1 µM |  | 
